Experimental data reported in BindingDB's records for doi:10.1021/acsmedchemlett.7b00249 (Vanderbilt University School of Medicine, 2017).

Target: Metabotropic glutamate receptor 5 (Rattus norvegicus, UniProt P31424)
Assay: Positive allosteric modulation of rat mGlu5 receptor expressed in HEK293A cells assessed as increase in glutamate induced-calcium mobilization preincubated for 2.3 mins followed by glutamate addition measured for 1.9 mins by Fluo-4 AM dye based fluorescence assay

Sequence of Metabotropic glutamate receptor 5 (P31424 whole entry): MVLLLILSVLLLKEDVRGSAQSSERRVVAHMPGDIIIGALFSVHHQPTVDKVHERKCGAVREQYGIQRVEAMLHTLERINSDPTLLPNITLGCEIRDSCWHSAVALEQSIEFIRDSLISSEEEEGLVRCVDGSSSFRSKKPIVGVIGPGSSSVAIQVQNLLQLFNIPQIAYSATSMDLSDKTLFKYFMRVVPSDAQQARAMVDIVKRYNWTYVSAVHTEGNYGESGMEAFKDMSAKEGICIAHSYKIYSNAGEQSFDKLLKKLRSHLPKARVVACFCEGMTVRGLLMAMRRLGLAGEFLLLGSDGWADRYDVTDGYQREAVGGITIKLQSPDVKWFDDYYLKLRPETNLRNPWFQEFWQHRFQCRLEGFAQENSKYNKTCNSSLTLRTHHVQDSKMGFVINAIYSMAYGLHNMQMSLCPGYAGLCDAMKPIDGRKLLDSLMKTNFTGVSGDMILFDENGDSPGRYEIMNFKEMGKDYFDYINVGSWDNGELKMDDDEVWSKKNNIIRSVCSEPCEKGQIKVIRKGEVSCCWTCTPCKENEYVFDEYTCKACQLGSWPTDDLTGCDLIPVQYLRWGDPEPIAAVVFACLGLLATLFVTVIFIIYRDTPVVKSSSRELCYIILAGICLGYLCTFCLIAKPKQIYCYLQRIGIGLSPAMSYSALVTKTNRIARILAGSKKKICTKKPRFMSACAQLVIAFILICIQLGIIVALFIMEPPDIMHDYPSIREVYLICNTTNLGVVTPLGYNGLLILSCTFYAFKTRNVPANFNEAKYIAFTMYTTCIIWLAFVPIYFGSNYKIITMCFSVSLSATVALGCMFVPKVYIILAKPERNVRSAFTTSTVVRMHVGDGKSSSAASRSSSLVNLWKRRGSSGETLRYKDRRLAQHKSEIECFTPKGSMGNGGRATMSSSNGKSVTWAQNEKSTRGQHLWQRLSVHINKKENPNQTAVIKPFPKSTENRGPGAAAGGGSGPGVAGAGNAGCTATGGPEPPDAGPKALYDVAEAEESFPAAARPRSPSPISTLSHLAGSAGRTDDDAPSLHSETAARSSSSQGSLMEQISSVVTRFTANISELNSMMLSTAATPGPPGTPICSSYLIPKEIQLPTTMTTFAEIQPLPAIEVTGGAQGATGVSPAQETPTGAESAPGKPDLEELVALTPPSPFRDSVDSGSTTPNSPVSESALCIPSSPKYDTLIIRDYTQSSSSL

## O=c1nc(OCCOc2ccccc2)ccn1-c1ccc(F)c(F)c1
  EC50: 398 nM
